Columns and labels:
obese C57BL/6 mice [1] = assay: OGTT before and after 30-day chronic treatment; type: in vivo, mouse; conditions: obese mice after 30 days of treatment, 10 mg/kg
Experimental: (§1) In order to evaluate the long-term effects of the treatment on blood glucose control, glucose tolerance (OGTT) and insulin sensitivity (ITT) were evaluated pre- and post-treatment. Thus, for the OGTT the mice were force-fed glucose (2 g/kg), and for the ITT the mice received an i.p. injection of insulin (0.5 IU/kg). In both cases, blood glucose was measured at times t=0, t=15 min, t=30 min, t=45 min, t=60 min, t=90 min, and t=120 min post-glucose ingestion using a Contour®TS blood glucose monitor (ref. 81574201, Bayer HealthCare) and reactive strips (ref. 81574274, Bayer HealthCare).

CB1R (pcDNA3.1-mCB1) = biological target: T1, CB1R (pcDNA3.1-mCB1) (Mus musculus, UniProt P47746); assay: GloSensor cAMP assay in CB1R-transfected HEK293T/17 cells; type: cell-based; conditions: HEK293T/17 cells transfected with mCB1, forskolin 1 μM, FIG. 2
T1 construct: expressed in transfected cells; host or cells: HEK293T/17 (ATCC), transient transfection with FuGENE HD
T1 sequence (P47746 whole entry): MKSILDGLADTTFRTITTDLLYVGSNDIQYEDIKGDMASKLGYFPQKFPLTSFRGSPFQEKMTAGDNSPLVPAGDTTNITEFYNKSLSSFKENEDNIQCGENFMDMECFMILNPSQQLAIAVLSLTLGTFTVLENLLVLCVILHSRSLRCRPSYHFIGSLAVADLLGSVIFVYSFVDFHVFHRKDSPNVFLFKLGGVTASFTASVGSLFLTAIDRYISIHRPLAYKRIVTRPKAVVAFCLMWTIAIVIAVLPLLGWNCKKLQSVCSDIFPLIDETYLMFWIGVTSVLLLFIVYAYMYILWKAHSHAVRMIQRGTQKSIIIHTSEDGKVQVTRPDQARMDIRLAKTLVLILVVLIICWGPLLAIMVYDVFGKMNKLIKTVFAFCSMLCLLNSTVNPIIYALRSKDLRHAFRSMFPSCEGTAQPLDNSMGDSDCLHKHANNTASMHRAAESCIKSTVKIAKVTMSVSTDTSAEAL
Experimental: HEK293T/17 (ATCC) cells were cultured in DMEM 10% FCS, then seeded at 30000 cells/well in 96-well plates. After 24 h, the cells were subjected to transient transfection by FuGENE HD (Promega) by pcDNA3.1-mCB1 (50 ng) and pGlo (100 ng) plasmids with or without pertussis toxin (PTX). For the control assays, the cells were transfected with empty pcDNA3 (EV) and pGlo vectors with or without PTX. At 48 h (24 h post-transfection), the cells were loaded for 2 h with 2% GloReagent in CO2-independent medium with 10% FCS (80 μL/well).
The cells were then treated by adding, at t=0, 10 μL/well of Forskolin (FSK) 1 μM final, in order to increase the basal cAMP concentration. The kinetics of appearance of cAMP was monitored for 10 minutes. At t=10, the molecules to be tested were added and the cAMP variations measured for 20 minutes. The light signal was measured in RLU and is expressed as % response relative to the signal read at t=10 min (FSK1 μM). Sigmoidal curves were obtained by measurement at t=10 min after addition of the molecule to be tested (thus t=20 min total) of the percentage of light signal as a function of molecule concentration. The 4PL regression was carried out using the Sigma Plot software and made it possible to obtain an EC50 (1 experiment, n=3).

obese C57BL/6 mice [2] = assay: Body mass, oral treatment simultaneously with food on high-fat diet; type: in vivo, mouse; conditions: obese mice on high-fat diet (35% crude fat), one administration daily during the meal, 10 mg/kg oral, 28 days
Experimental: C57BL/6 mice were made obese by means of a high-fat diet (35% crude fat, 25.3% carbohydrates; ref. E15742-34, SSNIFF, Soest, Germany) for 15 weeks. […] The weight of the animals was measured every two days from the beginning of the treatment.

obese C57BL/6 mice [3] = assay: Food intake, body weight and body composition (EchoMRI) during 30-day chronic treatment; type: in vivo, mouse; conditions: obese mice, 10 mg/kg i.p. daily, 30 days
Description: In order to determine the long-term effects of the molecules of interest, C57BL/6 mice made obese by means of a high-sucrose, high-fat diet (HSHF: 30% crude fat, 33.5% carbohydrates; ref. E15126-34; ref. E15126-34, SSNIFF, Soest, Germany) for 20 weeks. These mice then received daily an i.p. injection of rimonabant, JM-00.266 (i.e., compound IA) or vehicle for a period of 30 days. In parallel, weight and food intake were monitored every two days following the beginning of the treatment.
The long-term effect of the treatment on body composition was measured using an EchoMRI™ scanner allowing non-invasive analysis of fat mass, lean mass and body fluid composition by nuclear magnetic resonance (NMR) on the live animal without anaesthesia.

[4] = tested on: CB1R expression in liver explants of ob/ob mice; assay: Liver explant culture, CB1R gene expression (RT-PCR); type: cell-based, mouse; conditions: liver explants of ob/ob mice treated 21 h, FIG. 1
Experimental: The liver of the mice was perfused in situ, under sodium pentobarbital anaesthesia (50 mg/kg), with Hank's medium (pH 7.4) saturated with oxygen. Next, the liver was sectioned using a Brendel/Vitron slicer (Tucson, Ariz., USA) in the same medium. The liver sections (about 200 μm) were then incubated 21 h in William's medium E (WME) oxygenated and supplemented with deactivated foetal calf serum (10%) and antibiotic/antifungal cocktail (1%) under controlled atmosphere (5% CO2), to which is added either the antagonist to be tested or vehicle.
Total messenger RNA (mRNA) extraction was carried out with Tri Reagent (Euromedex, France) and consecutive synthesis of complementary DNA (cDNA) was carried out from 1 μg of mRNA with the Bio-Rad iScripttm Reverse Transcription super mix kit (Bio-Rad, France).
Gene expression was evaluated by semi-quantitative real-time reverse transcription-polymerase chain reaction (RT-PCR). The primers used were designed using the Primer3Plus software (http://www.bioinformatics.nl/cgi-bin/primer3plus/primer3plus.cgi) and were synthesized by MWG-Biotech (TATA box-binding protein: Sense […], antisense […]; CB1R: Sense […], antisense aaccccacccagtttgaac). Semi-quantification of gene expression was obtained by taking into account the efficacy of each PCR and after standardization with the reporter gene, TATA box-binding protein.

obese C57BL/6 mice [5] = assay: Body mass, 43-day oral treatment combined with low-fat diet; type: in vivo, mouse; conditions: low-fat diet (5% lipids), oral daily, 43 days
Description: In order to determine the long-term effects of compound of interest JM-00.266 (i.e., compound IA), C57BL/6 mice were made obese by means of a high-fat diet (30% crude fat, 33.5% carbohydrates; ref. E15126-34, SSNIFF, Soest, Germany) for 15 weeks. The mice were then subjected to a low-fat diet (5% lipids; Standard Diet AO4; UAR, Epinay-sur-Orge, France) and received daily, in the middle of the day, an oral dose of JM-00.266 (i.e., compound IA) or of vehicle over a period of 43 days. The weight of the animals was measured every two days from the beginning of the treatment.

obese C57BL/6 mice [6] = assay: ITT before and after 30-day chronic treatment; type: in vivo, mouse; conditions: obese mice after 30 days of treatment
Experimental: as §1

CSc1ccc(C2C(N3C(=O)c4ccccc4C3=O)C(=O)N2c2ccc(SC)cc2)cc1 (stereo not drawn) [JM-00.266, trans-1,4-di-(4-methylthiophenyl)-3-N-phthaloyl-azetidine-2-one]
basal blood glucose (obese C57BL/6 mice [1]): significant improvement | glucose tolerance (OGTT 2 g/kg) (obese C57BL/6 mice [1]): significant improvement | cAMP concentrations in the absence of agonist (AEA) (CB1R (pcDNA3.1-mCB1)): increased | weight loss versus vehicle (obese C57BL/6 mice [2]): lose more weight | body weight relative to control mice (obese C57BL/6 mice [3]): does not decrease | food intake compared with control mice (obese C57BL/6 mice [3]): not altered | hepatic CB1R expression [4]: significant decrease | body mass / weight loss versus vehicle + low-fat diet (obese C57BL/6 mice [5]): decreases significantly more | reduction in blood glucose induced by insulin injection, compared with SR141716 (obese C57BL/6 mice [6]): more marked | insulin resistance (ITT) (obese C57BL/6 mice [6]; 10 mg/kg): improved
